{"source": "patent US20100129515A1", "about": "“FLAVOUR MODULATING SUBSTANCES” (QUEST INTERNATIONAL SERVICES B.V., priority 2005, published 2010)", "key": {"[1]": {"assay": "Taste of solutions in water (Example 7)", "type": "in vivo"}, "[2]": {"conditions": "cited from earlier work; for taste: as a dry powder and as an alcoholic or aqueous solution; for pungency: compared with capsaicin"}, "[3]": {"assay": "Tasting of 5% (w/w) ethanol solutions by trained flavourist panel (Example 2)", "type": "in vivo", "conditions": "reference 5% (w/w) alcoholic solution", "experimental": "The solid product obtained in example 1 was dissolved in ethanol/water (1:1, w/w) to prepare a 1000 ppm stock solution.\nThe following 3 alcoholic solutions are prepared: A: 1 ppm N-vanillyl urea as obtained in example 1\nB: 10 ppm N-vanillyl urea as obtained in example 1\nC: 100 ppm N-vanillyl urea as obtained in example 1\nAll solutions were tasted by a trained flavourist panel and compared to a 5% (w/w) alcoholic solution (the reference)."}, "[4]": {"assay": "Tasting of 0.6% sodium chloride / 0.03% mono sodium glutamate solution by trained flavourist panel (Example 3)", "type": "in vivo", "conditions": "10 ppm in 0.6% sodium chloride, compared with solution A without substance", "experimental": "2 solutions were prepared containing respectively:\n0.03% mono sodium glutamate\n10 ppm N-vanillyl urea as described in example 1\nBoth solutions were tasted by a trained flavourist panel, which described the solutions as follows: […]"}, "[5]": {"assay": "Tasting of 10 ppm menthol solution by trained flavourist panel (Example 4)", "type": "in vivo", "conditions": "1 ppm added to 10 ppm menthol solution; compared to the base", "experimental": "1 ppm N-vanillyl urea as described in example 1 was added to a 10 ppm menthol solution and compared to the base. Both solutions were tasted by a trained flavourist panel, which described the solutions as follows: […]"}, "[6]": {"assay": "Tasting of fondant with 2500 ppm menthol by professional panel (Example 8)", "type": "in vivo", "experimental": "Three samples of fondant were prepared by mixing 65% Fondacreme (ex Belgosuc NV Belgium) with 35% sugar syrup (67° Brix). 2500 Ppm menthol was added as a 50% solution in propylene glycol.\nTo a first sample (sample A), 0.1 ppm N-vanillyl-N′-octyl urea was added To a second sample (sample B), 0.2 ppm N-vanillyl-N′-octyl thiourea was added. Samples A, B and the reference sample were tasted by a professional panel. […] The cooling was perceived more through the whole oral cavity."}, "[7]": {"assay": "Tasting of 0.6% NaCl / 0.03% MSG solutions by professional panel (Examples 9 and 10)", "type": "in vivo", "experimental": "Three solutions of 0.6% NaCl and 0.03% MSG were prepared.\nTo a first solution (sample A), 0.1 ppm N-vanillyl-N′-octyl urea was added To a second solution (sample B) 0.2 ppm N-vanillyl-N′-octyl thiourea was added.\n(§1) Samples A and B and the reference sample were tasted by a professional panel.\nTo a first solution (sample A), 5 ppm N-vanillyl-N′-octyl urea was added To a second solution (sample B), 10 ppm N-vanillyl-N′-octyl thiourea was added."}, "[8]": {"assay": "Tasting of 0.6% NaCl / 0.03% MSG / 4 ppm pepper oleoresin solutions by professional panel (Example 11)", "type": "in vivo", "experimental": "Three solutions of 0.6% NaCl and 0.03% MSG and 4 ppm pepper oleoresin (ex Warner Jenkinson, St Louis, USA) were prepared.\nTo a first solution (sample A), 1 ppm N-vanillyl-N′-octyl urea was added To a second solution (sample B), 2 ppm N-vanillyl-N′-octyl thiourea was added.\nas §1"}, "[9]": {"assay": "Tasting of toothpaste by professional panel (Example 13)", "type": "in vivo", "experimental": "97 g of a toothpaste base was prepared as follows: 13.8 ml demineralised water, 0.1 g trisodium phosphate (12H2O) and 0.8 g sodium monofluorophosphate were weighed and mixed until clear. 50.0 g of sorbitol was added and the blend was mixed again. The obtained mixture was placed in a Fryma pot. A poly bag was placed in a suitable container and 8.0 g of precipitated silica AC30, 9.0 g of precipitated silica TC15, 0.8 g of sodium carboxymethylcellulose (SCMC 9M31XF) and 1.0 g of a colorant (Tiona (1700)) were weighed and placed in the bag in the order listed. The top of the bag was secured with a tag and the contents were thoroughly mixed to distribute the gum throughout the mixture.\nThis mixture was added to the Fryma pot. Then 7.0 ml of demineralised water, 1.5 g of sodium lauryl sulphate (Empicol LXV100C) and 5.0 g of PEG 1500 were placed in a beaker and heated to 45° C. and mixed with a Turrax to disperse the ingredients. The dispersion was placed on a magnetic stirrer until clear (while covered with cling film) and was subsequently added to the Fryma pot.\nTo this base toothpaste 0.8 g of a 25% saccharin soln was added. Part of the base toothpaste was then intensively mixed with N-vanillyl-N′-octyl urea (as obtained in Example 4) to obtain a 0.1 ppm concentration of N-vanillyl-N′-octyl urea (sample A). […]"}}, "data": [{"compound": "COc1cc(CNC(N)=S)ccc1O", "note": "[N-vanillyl thiourea]", "values": [{"measurement": "taste of solution in water", "setting": "[1]; 25 ppm in water", "value": "tingling, burning and slightly bitter taste and a weak vanillin-like flavour sensation"}, {"measurement": "taste", "setting": "[2]", "value": "tasteless"}]}, {"compound": "COc1cc(CNC(N)=O)ccc1O", "note": "[N-vanillyl urea]", "values": [{"measurement": "taste compared to the reference", "setting": "[3]; 1 ppm in 5% (w/w) ethanol", "value": "more alcohol-like bite than the reference"}, {"measurement": "taste compared to the reference", "setting": "[3]; 10 ppm in 5% (w/w) ethanol", "value": "stronger hot, sharp and pungent, ethanol-like taste compared to the reference solution"}, {"measurement": "taste compared to the reference", "setting": "[3]; 100 ppm in 5% (w/w) ethanol", "value": "stronger hot, sharp and pungent, ethanol-like taste compared to the reference solution"}, {"measurement": "taste description", "setting": "[4]", "value": "more salty, umami, warm, bite, preferred to A"}, {"measurement": "taste description", "setting": "[5]", "value": "powerful and full cooling sensation, preferred to the base"}, {"measurement": "taste of solution in water", "setting": "[1]; 50 ppm in water", "value": "slightly tingling taste and a weak vanillin-like flavour sensation"}, {"measurement": "taste", "setting": "[2]", "value": "tasteless"}]}, {"compound": "CCCCCCCCNC(=S)NCc1ccc(O)c(OC)c1", "note": "[N-vanillyl-N′-octyl thiourea]", "values": [{"measurement": "cooling effect compared to the reference sample", "setting": "[6]; 0.2 ppm in fondant with 2500 ppm menthol, relative to sample A", "value": "the same effects but slightly weaker"}, {"measurement": "salt effects compared to the reference sample", "setting": "[7]; 0.2 ppm in 0.6% NaCl, relative to sample A", "value": "the same effects but slightly weaker"}, {"measurement": "salt and hotness effects compared to the reference sample", "setting": "[7]; 10 ppm in 0.6% NaCl, relative to sample A", "value": "the same effects but slightly weaker"}, {"measurement": "hotness and overall impression compared to the reference sample", "setting": "[8]; 2 ppm in 0.6% NaCl, relative to sample A", "value": "the same effects but slightly weaker"}]}, {"compound": "CCCCCCCCNC(=O)NCc1ccc(O)c(OC)c1", "note": "[N-vanillyl-N′-octyl urea, N-octyl-N′-vanillyl urea]", "values": [{"measurement": "taste of solution in water", "setting": "[1]; 1 ppm in water", "value": "strong tingling and burning taste"}, {"measurement": "cooling effect compared to the reference sample", "setting": "[6]; 0.1 ppm in fondant with 2500 ppm menthol", "value": "more intense and long-lasting cooling effect compared to the reference sample"}, {"measurement": "onset of salt impression compared to the reference", "setting": "[7]; 0.1 ppm in 0.6% NaCl", "value": "came faster than in the reference"}, {"measurement": "saltiness compared to the reference sample", "setting": "[7]; 0.1 ppm in 0.6% NaCl", "value": "more salty compared to the reference sample"}, {"measurement": "duration of hotness", "setting": "[7]; 5 ppm in 0.6% NaCl", "value": "up to 10 minutes"}, {"measurement": "onset of salt impression compared to the reference sample", "setting": "[7]; 5 ppm in 0.6% NaCl", "value": "came faster than in the reference sample"}, {"measurement": "saltiness and hotness compared to the reference sample", "setting": "[7]; 5 ppm in 0.6% NaCl", "value": "more salty and had a ‘clean’ and long lasting (up to 10 minutes) hotness compared to the reference sample"}, {"measurement": "hotness and overall impression compared to the reference sample", "setting": "[8]; 1 ppm in 0.6% NaCl", "value": "clearly more hot than the reference sample and the overall impression is much stronger"}, {"measurement": "cooling effect compared with the base toothpaste", "setting": "[9]; 0.1 ppm in toothpaste", "value": "more aggressive cooling and more cooling volume in the oral cavity than the base"}]}, {"compound": "CCNC(=O)C1CC(C)CCC1C(C)C", "note": "(stereo not drawn) [WS-3, reference compound]", "values": [{"measurement": "cooling effect compared with the base toothpaste", "setting": "[9]; 10 ppm in toothpaste", "value": "in between sample A and the base in cooling strength"}]}, {"compound": "COc1cc(CNC(=S)Nc2ccc(C)cc2)ccc1O", "note": "[p-tolylvanillyithiourea]", "values": [{"measurement": "pungency", "setting": "[2]", "value": "property of pungency but to a lesser degree than capsaicin"}]}, {"compound": "o-tolylvanillylthiourea", "values": [{"measurement": "pungency", "setting": "[2]", "value": "property of pungency but to a lesser degree than capsaicin"}]}, {"compound": "phenylvanillylthiourea", "values": [{"measurement": "taste", "setting": "[2]", "value": "tasteless"}, {"measurement": "pungency", "setting": "[2]", "value": "property of pungency but to a lesser degree than capsaicin"}]}]}
